In patent US20230055237A1, “COMPOUNDS AND METHODS FOR THE TREATMENT OF CYSTIC FIBROSIS” (Flatley Discovery Lab, LLC, priority 2019, published 2023):

Target: T1, CFTR (Homo sapiens, UniProt P13569, DEL508-508)
T1 construct: Primary CF airway epithelial cells were obtained from the UNC Cystic Fibrosis Tissue Procurement and Cell Culture Core; host or cells: primary CF airway epithelial cells, differentiated at the air-liquid interface
Experiment: Equivalent current assay in primary CF airway epithelial cells (NAUC, combination with 1st site corrector FDL169 or VX-809)
Format: cell-based
Conditions: 37° C., 24 h
Protocol: Primary CF airway epithelial cells were obtained from the UNC Cystic Fibrosis Tissue Procurement and Cell Culture Core. The cells are grown at 37° C. in a Heracell 150i incubator using growth media (BEGM, Fischer). […] Two days before the Ussing assay the mucus on the apical surface of the cells was aspirated after incubating with 200 μL of differentiation media for at least thirty (30) minutes. One day before the Ussing assay test compounds were added to the basolateral surface of the cells at various test concentrations dissolved in DMSO. Duplicate wells were prepared giving a n=3 or n=4 protocol.
Cells were treated for 24 hours with various combinations and concentrations of the test articles, reference standard (3 μM VX809 or 3 μM FDL169, positive control). Compounds stock solutions were prepared in DMSO and diluted 1/1000 into ALI media to their final assay concentration. Cells were treated with combination solutions (2 mL of each dilution) and incubated at 37° C. for 24 h.
For the equivalent current assay, cells on four Transwell (24-well) plates were treated. Each Transwell plate was filled with 200 μl of HBS on the apical surface and 2 ml on the basolateral surface. Plates were placed horizontally in a heated mount at 37° C., and equilibrated for several minutes. Resting current was measured for 15 min and then blocked by the apical addition of 5 μM benzamil. After 20 min, 10 μM forskolin and 1 μM VX770 were added to both the apical and basolateral side to stimulate CFTR. An increase in chloride current is seen as an upward deflection of the trace.
The raw data, current vs. time for the Ussing chamber (sampling interval: 10 s) and voltage vs. time and resistance vs. time for the equivalent current assay (sampling interval: 5 minutes) were transferred to Excel (Microsoft Office Professional, version 14.0.7106.5003) for analysis. […] This average is equivalent to the sum of the average forskolin activated and the average VX770-potentiated currents. The average current measured in vehicle (0.1% DMSO) treated cells, Iv, was subtracted from the current for the test article, ITA, or from the corrector reference standard VX809 (3 uM ISTD). For replicate measurements, the average vehicle subtracted response for the test article, was normalized to the average vehicle subtracted inhibitor response of the reference corrector VX809 (3 μM).
A second endpoint, for the equivalent current assay, evaluated was NAUC, the normalized area under the curve (AUC) measuring the response after addition of forskolin and VX770 to the time point right before the addition of the CFTR inhibitor. The AUC is effectively the average response multiplied by the duration of the response.
NAUCTA=[AUCTA−AUCV,ave]/[AUCVx809r,ave−AUCV,ave] (Equation 2).
Experiments were run with a minimum of n=4 replicates per concentration. Since the distribution for the ratio of two normal distributions is a Cauchy distribution, the median value must be used for the average and the average deviation must be used for the error of all normalized data.
E=Emin+(Emax−Emin)/(1+10^((LogEC5OS)*nH)) (Equation 3)

[1] = test compound 1 μM in combination with 1st site corrector VX-809 (3 μM)
[2] = test compound 3 μM in combination with 1st site corrector VX-809 (3 μM)
[3] = test compound 1 μM in combination with 1st site corrector FDL169 (3 μM)
[4] = test compound 3 μM in combination with 1st site corrector FDL169 (3 μM)
[5] = test compound 10 μM in combination with 1st site corrector VX-809 (3 μM)
[6] = test compound 10 μM in combination with 1st site corrector FDL169 (3 μM)

T1 sequence (P13569 with tags, fused parts or gaps DEL508-508): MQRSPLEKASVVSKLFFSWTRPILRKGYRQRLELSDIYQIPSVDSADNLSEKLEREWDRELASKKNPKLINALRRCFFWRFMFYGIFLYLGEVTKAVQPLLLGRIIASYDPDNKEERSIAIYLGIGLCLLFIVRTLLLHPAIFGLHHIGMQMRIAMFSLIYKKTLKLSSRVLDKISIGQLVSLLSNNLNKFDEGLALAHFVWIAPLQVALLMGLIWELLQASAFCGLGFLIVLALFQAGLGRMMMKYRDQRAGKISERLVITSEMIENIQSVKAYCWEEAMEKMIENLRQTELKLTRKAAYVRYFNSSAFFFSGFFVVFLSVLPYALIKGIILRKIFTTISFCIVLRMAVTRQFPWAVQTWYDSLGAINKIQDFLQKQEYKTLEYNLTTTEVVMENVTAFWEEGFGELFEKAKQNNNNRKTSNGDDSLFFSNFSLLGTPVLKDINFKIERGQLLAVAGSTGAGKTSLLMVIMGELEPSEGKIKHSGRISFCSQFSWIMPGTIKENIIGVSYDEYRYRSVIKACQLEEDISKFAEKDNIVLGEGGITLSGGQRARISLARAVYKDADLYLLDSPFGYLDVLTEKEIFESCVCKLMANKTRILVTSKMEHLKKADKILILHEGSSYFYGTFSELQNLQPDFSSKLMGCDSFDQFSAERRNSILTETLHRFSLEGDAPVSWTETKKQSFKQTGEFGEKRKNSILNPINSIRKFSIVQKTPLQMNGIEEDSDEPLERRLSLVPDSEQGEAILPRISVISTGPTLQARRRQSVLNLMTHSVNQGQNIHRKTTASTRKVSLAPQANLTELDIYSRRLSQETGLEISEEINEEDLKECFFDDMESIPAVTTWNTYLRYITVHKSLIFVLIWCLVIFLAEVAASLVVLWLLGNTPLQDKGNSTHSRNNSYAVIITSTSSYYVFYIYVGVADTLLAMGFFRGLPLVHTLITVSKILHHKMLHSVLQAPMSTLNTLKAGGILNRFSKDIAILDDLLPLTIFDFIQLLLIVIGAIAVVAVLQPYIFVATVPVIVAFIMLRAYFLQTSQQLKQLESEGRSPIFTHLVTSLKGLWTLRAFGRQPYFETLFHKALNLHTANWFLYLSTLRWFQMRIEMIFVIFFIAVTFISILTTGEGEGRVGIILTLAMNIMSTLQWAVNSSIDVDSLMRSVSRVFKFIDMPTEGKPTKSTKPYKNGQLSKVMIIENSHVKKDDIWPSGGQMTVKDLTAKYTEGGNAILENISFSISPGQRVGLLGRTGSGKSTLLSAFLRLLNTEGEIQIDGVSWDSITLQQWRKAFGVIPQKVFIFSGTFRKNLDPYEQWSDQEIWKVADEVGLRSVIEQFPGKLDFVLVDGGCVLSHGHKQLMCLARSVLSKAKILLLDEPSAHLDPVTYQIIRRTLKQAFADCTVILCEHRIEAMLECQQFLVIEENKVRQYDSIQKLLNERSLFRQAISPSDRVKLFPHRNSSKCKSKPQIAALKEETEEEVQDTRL

Row | Compound | Nauc @ 3 μM [2] | Nauc @ 1 μM [3] | Nauc @ 3 μM [4] | Nauc @ 10 μM [5] | other results
1 | CN(O)C(=O)[C@H]1[C@@H](C(=O)N(C)c2cc(Cl)cc(Cl)c2)[C@H]2CC(F)(F)CN2[C@]12C(=O)Nc1c(Cl)cc(Cl)cc12 [Example 260a, (1′R,2′S,3R,7a′R)-5,7-dichloro-N1′-(3,5-dichlorophenyl)-6′,6′-difluoro-N2′-hydroxy-N1′,N2′-dimethyl-2-oxo-1′,2′,5′,6′,7′,7a′-hexahydrospiro[indoline-3,3′-pyrrolizine]-1′,2′-dicarboxamide] | + (NAUC “+” refers to an observed NAUC <140% of positive control) | – | – | – | Nauc @ 1 μM [1]: + (NAUC “+” refers to an observed NAUC <140% of positive control)
2 | CC(C)(C)CN(C(=O)[C@H]1[C@H]2CCCN2C2(C(=O)Nc3c(Cl)cc(Cl)cc32)[C@H]1C(=O)O)c1cc(Cl)cc(Cl)c1 (single isomer, unassigned) [Example 82.6b, (1′S,2′R,7a′S)-5,7-dichloro-1-((3,5-dichlorophenyl)(neopentyl)carbamoyl)-2-oxo-1′,2′,5′,6′,7′,7a′-hexahydrospiro[indoline-3,3′-pyrrolizine]-2′-carboxylic acid] | – | ++ (NAUC “++” refers to an observed NAUC 170-140% of positive control) | + (NAUC “+” refers to an observed NAUC <140% of positive control) | – | –
3 | CN(C(=O)C1C2N(CCC2(F)F)C2(C(=O)Nc3c(Cl)cc(Cl)cc32)C1C(=O)O)c1cc(Cl)cc(Cl)c1 (single isomer, unassigned) [Example 268b, 5,7-dichloro-1′-((3,5-dichlorophenyl)(methyl)carbamoyl)-7′,7′-difluoro-2-oxo-1′,2′,5′,6′,7′,7a′-hexahydrospiro[indoline-3,3′-pyrrolizine]-2′-carboxylic acid] | +++ (NAUC “+++” refers to an observed NAUC>170% of positive control) | – | – | – | Nauc @ 1 μM [1]: +++ (NAUC “+++” refers to an observed NAUC>170% of positive control)
4 | Cn1ccc2ccc(NC(=O)[C@H]3[C@H]4CC(F)(F)CN4[C@]4(C(=O)Nc5c(Cl)cc(Cl)cc54)[C@H]3C(=O)O)cc21 [Example 136] | – | + (NAUC “+” refers to an observed NAUC <140% of positive control) | + (NAUC “+” refers to an observed NAUC <140% of positive control) | – | –
5 | O=C(Nc1cc(Cl)cc(Cl)c1)C1CN(C(=O)Nc2ccccc2)C2(C(=O)Nc3c(Cl)cc(Cl)cc32)C1C(=O)O (centres unmarked) [Example 30] | + (NAUC “+” refers to an observed NAUC <140% of positive control) | – | – | ++ (NAUC “++” refers to an observed NAUC 170-140% of positive control) | –
6 | Cc1oc(=O)oc1COC(=O)[C@H]1[C@@H](C(=O)N(C)c2cc(Cl)cc(Cl)c2)[C@H]2CC(F)(F)CN2C12C(=O)Nc1c(Cl)cc(Cl)cc12 (mixture of isomers) [Example 250.3a, rac-(5-methyl-2-oxo-1,3-dioxo1-4-yl)methyl (1′R,2′S,3R,7a′R)-5,7-dichloro-1-((3,5-dichlorophenyl)(methyl)carbamoyl)-6′,6′-difluoro-2-oxo-1′,2′,5′,6′,7′,7a′-hexahydrospiro[indoline-3,3′-pyrrolizine]-2′-carboxylate] | – | – | – | +++ (NAUC “+++” refers to an observed NAUC>170% of positive control) | –
7 | O=C(Nc1cc(Cl)cc(Cl)c1)C1C(C(F)(F)c2ccccc2C(F)(F)F)NC2(C(=O)Nc3c(Cl)cc(Cl)cc32)C1C(=O)O (centres unmarked) [Example 69.b] | +++ (NAUC “+++” refers to an observed NAUC>170% of positive control) | – | – | ++ (NAUC “++” refers to an observed NAUC 170-140% of positive control) | Nauc @ 1 μM [1]: ++ (NAUC “++” refers to an observed NAUC 170-140% of positive control)
8 | O=C(O)[C@H]1[C@@H](C(=O)N(CC2CC2)c2cc(Cl)cc(Cl)c2)[C@H]2CC(F)(F)CN2[C@]12C(=O)N(C1CC1)c1c(Cl)cc(Cl)cc12 [Example 208, (1′R,2′S,3R,7a′R)-5,7-dichloro-1-cyclopropyl-1′-((cyclopropylmethyl)(3,5-dichlorophenyl)carbamoyl)-6′,6′-difluoro-2-oxo-1′,2′,5′,6′,7′,7a′-hexahydrospiro[indoline-3.3′-pyrrolizine]-2′-carboxylic acid] | – | ++ (NAUC “++” refers to an observed NAUC 170-140% of positive control) | ++ (NAUC “++” refers to an observed NAUC 170-140% of positive control) | – | Nauc @ 10 μM [6]: + (NAUC “+” refers to an observed NAUC <140% of positive control)
9 | CC(=O)OCOC(=O)[C@H]1[C@@H](C(=O)N(C)c2cc(Cl)cc(Cl)c2)[C@H]2CC(F)(F)CN2[C@]12C(=O)Nc1c(Cl)cc(Cl)cc12 (single isomer, unassigned) [Example 256b] | – | – | – | + (NAUC “+” refers to an observed NAUC <140% of positive control) | –
10 | CC1(C)CC2C(C(=O)Nc3cc(Cl)c(OC(F)F)c(Cl)c3)C(C(=O)O)C3(C(=O)Nc4c(Cl)cc(Cl)cc43)N2C1 (centres unmarked) [Example 8, 5,7-dichloro-1′-((3,5-dichloro-4-(difluoromethoxy)phenyl)carbamoyl)-6′,6′-dimethyl-2-oxo-1′,2′,5′,6′,7′,7a′-hexahydrospiro[indoline-3,3′-pyrrolizine]-2′-carboxylic acid] | +++ (NAUC “+++” refers to an observed NAUC>170% of positive control) | – | – | +++ (NAUC “+++” refers to an observed NAUC>170% of positive control) | –
11 | CC(C)(CN(C(=O)[C@H]1[C@H]2CC(F)(F)CN2[C@]2(C(=O)Nc3c(Cl)cc(Cl)cc32)[C@H]1C(=O)O)c1cc(Cl)cc(Cl)c1)C(F)(F)F [Example 154] | – | +++ (NAUC “+++” refers to an observed NAUC>170% of positive control) | +++ (NAUC “+++” refers to an observed NAUC>170% of positive control) | – | Nauc @ 10 μM [6]: + (NAUC “+” refers to an observed NAUC <140% of positive control)
12 | Cn1cnc(NC(=O)[C@H]2[C@H]3CC(F)(F)CN3[C@]3(C(=O)Nc4c(Cl)cc(Cl)cc43)[C@H]2C(=O)O)c1 [Example 142] | – | + (NAUC “+” refers to an observed NAUC <140% of positive control) | + (NAUC “+” refers to an observed NAUC <140% of positive control) | – | –
13 | O=C(Nc1cncc(C(F)(F)F)n1)C1C2CC3(CC3)CN2C2(C(=O)Nc3c(Cl)cc(Cl)cc32)C1C(=O)O (centres unmarked) [Example 21] | +++ (NAUC “+++” refers to an observed NAUC>170% of positive control) | – | – | +++ (NAUC “+++” refers to an observed NAUC>170% of positive control) | –
14 | CN(C(=O)C1C2CC(F)(F)CN2C2(C(=O)Nc3c(Cl)cc(Cl)cc32)C1C(=O)O)c1cc(C(F)(F)F)cc(C(F)(F)F)n1 (single isomer, unassigned) [Example 273b, 1′-((4,6-bis(trifluoromethyl)pyridin-2-yl)(methyl)carbamoyl)-5,7-dichloro-6′,6′-difluoro-2-oxo-1′,2′,5′,6′,7′,7a′-hexahydrospiro[indoline-3,3′-pyrrolizine]-2′-carboxylic acid] | – | + (NAUC “+” refers to an observed NAUC <140% of positive control) | ++ (NAUC “++” refers to an observed NAUC 170-140% of positive control) | – | –
